Measurements published in patent publication US8877816B2, “4-(or 5-) substituted catechol derivatives” (Decode Genetics EHF, priority 2007, dated 2014).

What was measured:
[1] = target: PDE4 h4B1 (Homo sapiens, UniProt Q07343); assay: In-vitro real-time enzyme-coupled spectrophotometric assay for PDE4 enzymes (h4B1); format: biochemical; conditions: PDE4 isoform h4B1; enzyme-coupled NADH assay, absorbance at 340 nm
Description: (§1) In-vitro assay for PDE4 enzymes. The in-vitro activity of PDE4 enzymes and the in-vitro potency of therapeutic agents described in the present invention was measured using a real-time, enzyme-coupled spectrophotometric assay. By using three different coupling enzymes, the product of the PDE4 reaction is coupled to the oxidation of the reduced form β-nicotinamide adenine dinucleotide (NADH), which dissipation can be monitored spectrophotmetrically at […].
(§2) Assay description. Buffer A containing 50 mM Tris, pH 8.0, 16 mM MgCl2 and 80 mM KCl is prepared and stored at room temperature. Buffer B containing 50 mM Tris, pH 8.0 is prepared and stored at room temperature. Stock solutions of the following reagents are prepared in Buffer B and stored at −20° C.: Adenosine-5′-triphosphate (ATP), cyclic adenosine-5′-monophosphate (cAMP), phosphoenolpyruvate (PEP) and NADH. An assay mix is prepared by mixing Buffer A, […] (TCEP), ATP, PEP, NADH, myokinase (MK), pyruvate kinase (PK), lactate dehydroganese (LDH) and PDE4 to a final volume of 20 mL, which is enough for a single 96-well assay plate. Assay mix (180 μL) and test article (10 μL) in 1:1 DMSO/H2O mixture is pre-incubated at room temperature for 10 min. The enzymatic reaction is initiated by addition of cAMP (10 μL). Final concentration of all components in the assay (200 μL/well) are as follows: 10 mM MgCl2, 50 mM KCl, 5 mM TCEP, 2.5% DMSO, 0.4 mM NADH, 1 mM PEP, 0.04 mM ATP, 5 units MK, 1 unit PK, 1 unit LDH and appropriate amount of PDE4. Reaction progress curves are monitored in a plate reader capable of measuring light absorbance at 340 nm. A decrease in light absorbance at 340 nm is due to oxidation of NADH. Positive controls containing no test article and negative controls containing no test article and no cAMP are included on every assay plate. Reaction rates are determined from the slopes of the linear portions of the progress curves. All data are percent normalized with respect to controls and presented as percent inhibition.

[2] = target: PDE4 h4D7 (Homo sapiens, UniProt Q08499); assay: In-vitro real-time enzyme-coupled spectrophotometric assay for PDE4 enzymes (h4D7); format: biochemical; conditions: PDE4 isoform h4D7; enzyme-coupled NADH assay, absorbance at 340 nm
Description: as §1, §2

[3] = tested on: leukotriene E4 (LTE4) in human whole blood after Sephadex stimulation; assay: Ex-vivo assay: Sephadex bead stimulated LTE4 production in human whole blood; format: cell-based; conditions: 1.5 h; heparinized human whole blood, Sephadex G-15 beads, 37° C. 90 min, LTE4 by immunoassay; read-out: IC50 (inhibition of LTE4 production)
Description: The activity of PDE4 inhibitors described in the present invention was also measured using in an ex-vivo assay measuring leukotriene E4 (LTE4) in human whole blood after Sephadex stimulation. […] For each sample, 356 μl of heparinized human whole blood (Vacutainer tube #6480) is added to wells of a 96 well plate. Then, 4 μl of a series of compound dilutions (in DMSO) are added in triplicates, suspension mixed and allowed to incubate at 37° C. for 15 min with gentle shaking. After that, blood samples are stimulated by adding 40 μL of Sephadex G-15 beads (Sigma-Aldrich, Sweden). The beads are predissolved in PBS (0.16 g/mL PBS). After mixing, the suspension is incubated at 37° C. for 90 min. Then, 8 μL of 15% EDTA/PBS is added to each sample, mixed and plate centrifuged for 5 min at 115×g at 21° C. and supernatants taken. In each plate, 10 positive controls and 10 negative controls are used, containing DMSO instead of compound solution. The positive controls are stimulated with Sephadex as described for the samples, and in the negative controls (unstimulated), Sephadex solution is replaced by PBS. LTE4 levels in the resulting plasma samples are determined using a commercial enzyme-linked immunoassay (Cayman Chemical Company, Ann Arbor, Mich.) according to the manufacturer's instructions. […]

Sequence of PDE4 h4D7 (Q08499 1-748 isoform Q08499-11): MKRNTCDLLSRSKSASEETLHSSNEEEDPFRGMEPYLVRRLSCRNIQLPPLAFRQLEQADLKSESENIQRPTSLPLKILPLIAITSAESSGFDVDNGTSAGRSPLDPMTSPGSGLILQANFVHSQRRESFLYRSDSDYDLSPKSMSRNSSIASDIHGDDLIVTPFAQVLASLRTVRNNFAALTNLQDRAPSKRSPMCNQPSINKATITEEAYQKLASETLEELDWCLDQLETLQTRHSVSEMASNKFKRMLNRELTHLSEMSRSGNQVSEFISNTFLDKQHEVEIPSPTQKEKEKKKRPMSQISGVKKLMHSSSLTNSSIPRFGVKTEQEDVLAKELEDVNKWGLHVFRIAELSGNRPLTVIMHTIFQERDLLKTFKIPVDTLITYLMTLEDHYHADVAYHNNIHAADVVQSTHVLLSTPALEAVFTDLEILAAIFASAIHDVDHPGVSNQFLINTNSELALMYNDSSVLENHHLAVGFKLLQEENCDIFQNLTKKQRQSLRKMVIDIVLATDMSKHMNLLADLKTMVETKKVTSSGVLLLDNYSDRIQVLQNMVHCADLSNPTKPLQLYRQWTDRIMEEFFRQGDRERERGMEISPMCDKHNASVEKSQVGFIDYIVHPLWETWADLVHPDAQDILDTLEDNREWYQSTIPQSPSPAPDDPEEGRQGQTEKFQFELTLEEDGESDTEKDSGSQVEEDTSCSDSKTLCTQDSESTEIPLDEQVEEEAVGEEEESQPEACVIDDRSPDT
Sequence of PDE4 h4B1 (Q07343 whole entry, canonical isoform): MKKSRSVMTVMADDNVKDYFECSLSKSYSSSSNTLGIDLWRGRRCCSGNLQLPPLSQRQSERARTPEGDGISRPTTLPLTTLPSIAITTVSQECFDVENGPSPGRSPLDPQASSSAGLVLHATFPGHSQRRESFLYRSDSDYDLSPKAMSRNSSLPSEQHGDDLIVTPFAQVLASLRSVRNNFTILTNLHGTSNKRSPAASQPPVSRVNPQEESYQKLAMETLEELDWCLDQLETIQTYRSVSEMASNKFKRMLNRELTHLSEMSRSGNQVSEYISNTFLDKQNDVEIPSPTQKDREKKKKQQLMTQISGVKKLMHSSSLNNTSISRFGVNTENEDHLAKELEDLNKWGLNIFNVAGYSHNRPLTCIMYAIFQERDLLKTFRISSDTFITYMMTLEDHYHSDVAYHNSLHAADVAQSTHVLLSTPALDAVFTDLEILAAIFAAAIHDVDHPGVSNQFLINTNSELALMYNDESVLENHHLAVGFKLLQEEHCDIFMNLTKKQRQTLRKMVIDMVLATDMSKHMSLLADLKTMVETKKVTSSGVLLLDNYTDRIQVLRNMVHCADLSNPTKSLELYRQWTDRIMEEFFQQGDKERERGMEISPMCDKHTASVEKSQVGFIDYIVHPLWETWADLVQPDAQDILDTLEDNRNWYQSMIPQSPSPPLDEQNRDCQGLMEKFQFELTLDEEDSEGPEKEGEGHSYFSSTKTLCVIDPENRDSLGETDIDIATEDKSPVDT

| Structure (SMILES) | IC50 [1] | IC50 [2] | IC50 [3] |
| --- | --- | --- | --- |
| COc1ccc(Cc2ccc(F)cc2)c(F)c1Oc1cccc([N+](=O)[O-])c1 [Example P-01, 2-Fluoro-1-(4-fluoro-benzyl)-4-methoxy-3-(3-nitro-phenoxy)-benzene] | > 21 µM | < 1 µM | < 1 µM |
| COc1ccc(Cc2ccc(F)cc2)c(F)c1Oc1cccc(N)c1 [Example P-02, 3-[2-Fluoro-3-(4-fluoro-benzyl)-6-methoxy-phenoxy]-phenylamine] | > 21 µM | > 21 µM |  |
| COc1ccc(Cc2ccc(F)cc2)c(F)c1Oc1cccc(Cl)c1 [Example P-03, 2-(3-Chloro-phenoxy)-3-fluoro-4-(4-fluoro-benzyl)-1-methoxy-benzene] | 1 to 10 µM | < 1 µM |  |
| COc1ccc(Cc2ccc(NS(C)(=O)=O)cc2)cc1Oc1ccccc1 [Example P-04, N-[4-(4-Methoxy-3-phenoxy-benzyl)-phenyl]-methanesulfonamide] | > 21 µM | > 21 µM |  |
| COc1ccc(Cc2ccc(N)nc2)cc1Oc1cccc(Cl)c1 [Example P-05, 5-[3-(3-Chloro-phenoxy)-4-methoxy-benzyl]-pyridin-2-ylamine] | 11 to 20 µM | 1 to 10 µM |  |
| COc1ccc(Cc2ccc(NC(N)=O)nc2)cc1Oc1cccc(Cl)c1 [Example P-06, {5-[3-(3-Chloro-phenoxy)-4-methoxy-benzyl]-pyridin-2-yl}-urea] | 1 to 10 µM | 1 to 10 µM |  |
| COc1ccc(Cc2ccc(N)cc2)cc1Oc1cccc(Cl)c1 [Example P-07, 4-[3-(3-Chloro-phenoxy)-4-methoxy-benzyl]-phenylamine] | 1 to 10 µM | 1 to 10 µM |  |
| COc1ccc(Cc2ccc(O)cc2)cc1Oc1cccc(Cl)c1 [Example P-08, 4-[3-(3-chloro-phenoxy)-4-methoxy-benzyl]-phenol] | > 21 µM | 1 to 10 µM |  |
| COc1ccc(Cc2ccc(NS(C)(=O)=O)nc2)cc1Oc1cccc(Cl)c1 [Example P-09, N-{5-[3-(3-Chloro-phenoxy)-4-methoxy-benzyl]-pyridin-2-yl}-methanesulfonamide] | > 21 µM | 1 to 10 µM |  |
| COc1ccc(Cc2ccc(NC(C)=O)cc2)c(F)c1Oc1ccc(F)cc1 [Example P-10, N-{4-[2-Fluoro-3-(4-fluoro-phenoxy)-4-methoxy-benzyl]-phenyl}-acetamide] | > 21 µM | 11 to 20 µM |  |
| COc1ccc(Cc2ccc(NC(N)=O)cc2)c(F)c1Oc1ccc(F)cc1 [Example P-11, {4-[2-Fluoro-3-(4-fluoro-phenoxy)-4-methoxy-benzyl]-phenyl}-urea] | 1 to 10 µM | < 1 µM |  |
| COc1ccc(Cc2ccc(NC(N)=O)cc2)c(F)c1Oc1ccccn1 [Example P-12] | > 21 µM | < 1 µM |  |
